Test results: ChEMBL document CHEMBL4138123, “Design, synthesis and biological evaluation of novel pyrazolochalcones as potential modulators of PI3K/Akt/mTOR pathway and inducers of apoptosis in breast cancer cells” (Eur J Med Chem, 2017)
pIC50: −log10 of the molar value.

What was measured:
NCI-H226 = experiment: Cytotoxicity against human NCI-H226 cells assessed as growth inhibition after 48 hrs by sulforhodamine B assay; assay type: functional; details: NCI-H226, 48 h
NCI-H460 = experiment: Cytotoxicity against human NCI-H460 cells assessed as growth inhibition after 48 hrs by sulforhodamine B assay; assay type: functional; details: NCI-H460, 48 h
U-251 [1] = experiment: Cytotoxicity against human U251 cells assessed as growth inhibition after 48 hrs by sulforhodamine B assay; assay type: functional; details: U-251, 48 h
M14 = experiment: Cytotoxicity against human M14 cells assessed as growth inhibition after 48 hrs by sulforhodamine B assay; assay type: functional; details: M14, 48 h
SK-MEL-5 [2] = experiment: Cytotoxicity against human SK-MEL-5 cells assessed as growth inhibition after 48 hrs by sulforhodamine B assay; assay type: functional; details: SK-MEL-5, 48 h
MCF7 [3] = experiment: Cytotoxicity against human MCF7 cells assessed as growth inhibition after 48 hrs by MTT assay; assay type: functional, cell-based; details: MCF7, 48 h
NCI/ADR-RES [4] = experiment: Cytotoxicity against human NCI/ADR-RES cells assessed as cell growth at 0.01 uM after 48 hrs by sulforhodamine B assay relative to control; assay type: functional; details: read-out: Activity
OVCAR-3 = experiment: Cytotoxicity against human OVCAR3 cells assessed as cell growth at 0.01 uM after 48 hrs by sulforhodamine B assay relative to control; assay type: functional; details: OVCAR-3, 48 h, read-out: Activity
MDA-MB-435 = experiment: Cytotoxicity against human MDA-MB-435 cells assessed as cell growth at 0.01 uM after 48 hrs by sulforhodamine B assay relative to control; assay type: functional; details: MDA-MB-435, 48 h, read-out: Activity
HL-60(TB) = experiment: Cytotoxicity against human HL-60(TB) cells assessed as cell growth at 0.01 uM after 48 hrs by sulforhodamine B assay relative to control; assay type: functional; details: HL-60, 48 h, read-out: Activity
PC-3 = experiment: Cytotoxicity against human PC3 cells assessed as cell growth at 0.01 uM after 48 hrs by sulforhodamine B assay relative to control; assay type: functional; details: PC-3, 48 h, read-out: Activity
T47D = experiment: Cytotoxicity against human T47D cells assessed as cell growth at 0.01 uM after 48 hrs by sulforhodamine B assay relative to control; assay type: functional; details: read-out: Activity
CCRF-CEM [5] = experiment: Cytotoxicity against human CCRF-CEM cells assessed as cell growth at 0.1 uM after 48 hrs by sulforhodamine B assay relative to control; assay type: functional; details: read-out: Activity
KM12 = experiment: Cytotoxicity against human KM12 cells assessed as cell growth at 0.1 uM after 48 hrs by sulforhodamine B assay relative to control; assay type: functional; details: KM12, 48 h, read-out: Activity
SN12C = experiment: Cytotoxicity against human SN12C cells assessed as cell growth at 0.1 uM after 48 hrs by sulforhodamine B assay relative to control; assay type: functional; details: read-out: Activity
A549 = experiment: Cytotoxicity against human A549/ATCC cells assessed as cell growth at 1 uM after 48 hrs by sulforhodamine B assay relative to control; assay type: functional; details: A549, 48 h, read-out: Activity
NCI-H522 = experiment: Cytotoxicity against human NCI-H522 cells assessed as cell growth at 1 uM after 48 hrs by sulforhodamine B assay relative to control; assay type: functional; details: NCI-H522, 48 h, read-out: Activity
HCT-116 = experiment: Cytotoxicity against human HCT116 cells assessed as cell growth at 1 uM after 48 hrs by sulforhodamine B assay relative to control; assay type: functional; details: HCT-116, 48 h, read-out: Activity
HCT-15 = experiment: Cytotoxicity against human HCT15 cells assessed as cell growth at 1 uM after 48 hrs by sulforhodamine B assay relative to control; assay type: functional; details: HCT-15, 48 h, read-out: Activity
SW-620 = experiment: Cytotoxicity against human SW620 cells assessed as cell growth at 1 uM after 48 hrs by sulforhodamine B assay relative to control; assay type: functional; details: SW-620, 48 h, read-out: Activity
SK-MEL-5 [6] = experiment: Cytotoxicity against human SK-MEL-5 cells assessed as cell growth at 1 uM after 48 hrs by sulforhodamine B assay relative to control; assay type: functional; details: SK-MEL-5, 48 h, read-out: Activity
NCI/ADR-RES [7] = experiment: Cytotoxicity against human NCI/ADR-RES cells assessed as cell growth at 1 uM after 48 hrs by sulforhodamine B assay relative to control; assay type: functional; details: read-out: Activity
786-0 = experiment: Cytotoxicity against human 786-0 cells assessed as cell growth at 1 uM after 48 hrs by sulforhodamine B assay relative to control; assay type: functional; details: 786-0, 48 h, read-out: Activity
MCF7 [8] = experiment: Cytotoxicity against human MCF7 cells assessed as cell growth at 1 uM after 48 hrs by sulforhodamine B assay relative to control; assay type: functional; details: MCF7, 48 h, read-out: Activity
CCRF-CEM [9] = experiment: Cytotoxicity against human CCRF-CEM cells assessed as cell growth at 10 uM after 48 hrs by sulforhodamine B assay relative to control; assay type: functional; details: read-out: Activity
COLO 205 = experiment: Cytotoxicity against human COLO205 cells assessed as cell growth at 10 uM after 48 hrs by sulforhodamine B assay relative to control; assay type: functional; details: COLO 205, 48 h, read-out: Activity
SNB-19 = experiment: Cytotoxicity against human SNB19 cells assessed as cell growth at 10 uM after 48 hrs by sulforhodamine B assay relative to control; assay type: functional; details: SNB-19, 48 h, read-out: Activity
OVCAR-5 [10] = experiment: Cytotoxicity against human OVCAR5 cells assessed as cell growth at 10 uM after 48 hrs by sulforhodamine B assay relative to control; assay type: functional; details: OVCAR-5, 48 h, read-out: Activity
MDA-MB-231 = experiment: Cytotoxicity against human MDA-MB-231 cells assessed as cell growth at 10 uM after 48 hrs by sulforhodamine B assay relative to control; assay type: functional; details: MDA-MB-231, 48 h, read-out: Activity
SF-268 = experiment: Cytotoxicity against human SF268 cells assessed as cell growth at 100 uM after 48 hrs by sulforhodamine B assay relative to control; assay type: functional; details: SF-268, 48 h, read-out: Activity
U-251 [11] = experiment: Cytotoxicity against human U251 cells assessed as cell growth at 100 uM after 48 hrs by sulforhodamine B assay relative to control; assay type: functional; details: U-251, 48 h, read-out: Activity
OVCAR-4 = experiment: Cytotoxicity against human OVCAR4 cells assessed as cell growth at 100 uM after 48 hrs by sulforhodamine B assay relative to control; assay type: functional; details: OVCAR-4, 48 h, read-out: Activity
OVCAR-5 [12] = experiment: Cytotoxicity against human OVCAR5 cells assessed as cell growth at 100 uM after 48 hrs by sulforhodamine B assay relative to control; assay type: functional; details: OVCAR-5, 48 h, read-out: Activity
UO-31 = experiment: Cytotoxicity against human UO31 cells assessed as cell growth at 100 uM after 48 hrs by sulforhodamine B assay relative to control; assay type: functional; details: UO-31, 48 h, read-out: Activity
Hs-578T = experiment: Cytotoxicity against human Hs 578T cells assessed as cell growth at 100 uM after 48 hrs by sulforhodamine B assay relative to control; assay type: functional; details: read-out: Activity

SMILES: COc1ccc(-c2cc(/C=C/C(=O)c3ccc(OC)c(OC)c3)[nH]n2)cc1
- GI50 (NCI-H226): 1.54 µM
- TGI (NCI-H226): 3.51 µM
- GI50 (NCI-H460): 1.64 µM
- LC50 (NCI-H460): 22.8 µM
- TGI (NCI-H460): 4.34 µM
- GI50 (U-251 [1]): 1.11 µM
- LC50 (U-251 [1]): 4.97 µM
- TGI (U-251 [1]): 2.34 µM
- GI50 (M14): 2.17 µM
- LC50 (concentration killing 50% of cells) (M14): 13.8 µM
- TGI (M14): 4.97 µM
- GI50 (SK-MEL-5 [2]): 1.77 µM
- LC50 (concentration killing 50% of cells) (SK-MEL-5 [2]): 7.83 µM
- TGI (SK-MEL-5 [2]): 3.72 µM
- pIC50 (MCF7 [3]): 6.30
- growth at 0.01 µM (NCI/ADR-RES [4]): 102%
- growth at 0.01 µM (OVCAR-3): 106%
- growth at 0.01 µM (MDA-MB-435): 97%
- growth at 0.01 µM (HL-60(TB)): 102%
- growth at 0.01 µM (PC-3): 95%
- growth at 0.01 µM (T47D): 95%
- growth at 0.1 µM (CCRF-CEM [5]): 97%
- growth at 0.1 µM (KM12): 103%
- growth at 0.1 µM (SN12C): 93%
- growth at 1 µM (A549): 77%
- growth at 1 µM (NCI-H522): 11%
- growth at 1 µM (HCT-116): 51%
- growth at 1 µM (HCT-15): 65%
- growth at 1 µM (SW-620): 65%
- growth at 1 µM (SK-MEL-5 [6]): 88%
- growth at 1 µM (NCI/ADR-RES [7]): 91%
- growth at 1 µM (786-0): 86%
- growth at 1 µM (MCF7 [8]): 27%
- growth at 10 µM (CCRF-CEM [9]): -39%
- growth at 10 µM (COLO 205): -89%
- growth at 10 µM (SNB-19): -31%
- growth at 10 µM (OVCAR-5 [10]): -49%
- growth at 10 µM (MDA-MB-231): -17%
- growth at 100 µM (SF-268): -63%
- growth at 100 µM (U-251 [11]): -100%
- growth at 100 µM (OVCAR-4): -77%
- growth at 100 µM (OVCAR-5 [12]): -87%
- growth at 100 µM (UO-31): -100%
- growth at 100 µM (Hs-578T): -26%

SMILES: COc1ccc(-c2cc(/C=C/C(=O)c3ccc(N)cc3)[nH]n2)cc1
- GI50 (NCI-H226): 2 µM
- LC50 (concentration killing 50% of cells) (NCI-H226): 92.1 µM
- TGI (NCI-H226): 5.57 µM
- GI50 (NCI-H460): 2.07 µM
- LC50 (NCI-H460): 20.9 µM
- TGI (NCI-H460): 4.95 µM
- GI50 (U-251 [1]): 1.24 µM
- LC50 (U-251 [1]): 5.3 µM
- TGI (U-251 [1]): 2.57 µM
- GI50 (M14): 2.67 µM
- LC50 (concentration killing 50% of cells) (M14): 36.1 µM
- TGI (M14): 6.54 µM
- GI50 (SK-MEL-5 [2]): 2.71 µM
- LC50 (concentration killing 50% of cells) (SK-MEL-5 [2]): 30.4 µM
- TGI (SK-MEL-5 [2]): 9.25 µM
- pIC50 (MCF7 [3]): 6.10
- growth at 0.01 µM (NCI/ADR-RES [4]): 101%
- growth at 0.01 µM (OVCAR-3): 104%
- growth at 0.01 µM (MDA-MB-435): 97%
- growth at 0.01 µM (HL-60(TB)): 96%
- growth at 0.01 µM (PC-3): 95%
- growth at 0.01 µM (T47D): 98%
- growth at 0.1 µM (CCRF-CEM [5]): 98%
- growth at 0.1 µM (KM12): 97%
- growth at 0.1 µM (SN12C): 94%
- growth at 1 µM (A549): 84%
- growth at 1 µM (NCI-H522): 61%
- growth at 1 µM (HCT-116): 67%
- growth at 1 µM (HCT-15): 50%
- growth at 1 µM (SW-620): 72%
- growth at 1 µM (SK-MEL-5 [6]): 90%
- growth at 1 µM (NCI/ADR-RES [7]): 85%
- growth at 1 µM (786-0): 88%
- growth at 1 µM (MCF7 [8]): 42%
- growth at 10 µM (CCRF-CEM [9]): -27%
- growth at 10 µM (COLO 205): -86%
- growth at 10 µM (SNB-19): 5%
- growth at 10 µM (OVCAR-5 [10]): -41%
- growth at 10 µM (MDA-MB-231): -7%
- growth at 100 µM (SF-268): -61%
- growth at 100 µM (U-251 [11]): -100%
- growth at 100 µM (OVCAR-4): -68%
- growth at 100 µM (OVCAR-5 [12]): -86%
- growth at 100 µM (UO-31): -87%
- growth at 100 µM (Hs-578T): -35%
